In ChEMBL document CHEMBL5346978, “Exploration of Tetrahydroisoquinoline- and Benzo[c]azepine-Based Sphingosine 1-Phosphate Receptor 1 Agonists for the Treatment of Multiple Sclerosis” (J Med Chem, 2023):
Activity calls are given as the source filed them. No cut-off for these calls is given here.

Tests used:
[1] = Cardiotoxicity in human iPSC-derived cardiomyocyte assessed as effect on intracellular cardiomyocyte contraction at 20 uM measured for 2 mins by FLIPR analysis; assay type: toxicity, cell-based; settings: cardiac muscle cell
CYP2C9 = CYP2C9 (Homo sapiens, UniProt P11712); assay: Inhibition of CYP2C9 in human liver microsomes using diclofenac as substrate assessed as residual activity at 10 uM preincubated for 5 mins followed by substrate addition and measured after 15 mins in presence of NADPH by LC-MS/MS analysis; assay type: ADME, Microsome; settings: probe diclofenac, time 20 min, read-out: Activity
Chain of CYP2C9 (P11712 whole entry): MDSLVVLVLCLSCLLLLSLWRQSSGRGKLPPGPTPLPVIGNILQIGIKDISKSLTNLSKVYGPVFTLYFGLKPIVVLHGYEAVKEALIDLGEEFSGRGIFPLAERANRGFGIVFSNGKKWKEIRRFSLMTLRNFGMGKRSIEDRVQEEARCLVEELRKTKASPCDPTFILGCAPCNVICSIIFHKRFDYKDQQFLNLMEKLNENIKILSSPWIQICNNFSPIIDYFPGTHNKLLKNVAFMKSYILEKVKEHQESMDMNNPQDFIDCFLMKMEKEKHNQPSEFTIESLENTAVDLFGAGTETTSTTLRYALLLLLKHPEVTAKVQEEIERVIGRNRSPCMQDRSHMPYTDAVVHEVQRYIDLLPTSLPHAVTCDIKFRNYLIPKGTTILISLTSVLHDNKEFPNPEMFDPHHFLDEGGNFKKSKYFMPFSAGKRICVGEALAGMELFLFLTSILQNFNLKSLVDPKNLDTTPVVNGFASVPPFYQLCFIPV

CYP2D6 = CYP2D6 (Homo sapiens, UniProt P10635); assay: Inhibition of CYP2D6 in human liver microsomes using dextromethorphan as substrate assessed as residual activity at 10 uM preincubated for 5 mins followed by substrate addition and measured after 15 mins in presence of NADPH by LC-MS/MS analysis; assay type: ADME, Microsome; settings: probe dextromethorphan, time 20 min, read-out: Activity
Chain of CYP2D6 (P10635 whole entry): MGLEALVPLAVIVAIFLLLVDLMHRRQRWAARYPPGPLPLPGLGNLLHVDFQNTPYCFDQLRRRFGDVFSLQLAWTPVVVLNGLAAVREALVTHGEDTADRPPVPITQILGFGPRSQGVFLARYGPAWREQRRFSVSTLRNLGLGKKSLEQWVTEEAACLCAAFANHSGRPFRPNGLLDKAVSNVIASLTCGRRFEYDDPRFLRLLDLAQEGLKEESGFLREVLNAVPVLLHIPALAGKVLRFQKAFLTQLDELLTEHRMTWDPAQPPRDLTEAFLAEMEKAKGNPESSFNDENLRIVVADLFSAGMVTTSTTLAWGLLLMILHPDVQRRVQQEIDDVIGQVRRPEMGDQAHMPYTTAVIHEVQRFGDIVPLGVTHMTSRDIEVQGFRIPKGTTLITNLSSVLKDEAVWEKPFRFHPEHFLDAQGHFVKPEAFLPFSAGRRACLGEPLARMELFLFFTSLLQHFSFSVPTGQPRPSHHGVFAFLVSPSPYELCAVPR

CYP3A4 = CYP3A4 (Homo sapiens, UniProt P08684); assay: Inhibition of CYP3A4 in human liver microsomes using midazolam as substrate assessed as residual activity at 10 uM preincubated for 5 mins followed by substrate addition and measured after 15 mins in presence of NADPH by LC-MS/MS analysis; assay type: ADME, Microsome; settings: probe midazolam, time 20 min, read-out: Activity
Chain of CYP3A4 (P08684 whole entry): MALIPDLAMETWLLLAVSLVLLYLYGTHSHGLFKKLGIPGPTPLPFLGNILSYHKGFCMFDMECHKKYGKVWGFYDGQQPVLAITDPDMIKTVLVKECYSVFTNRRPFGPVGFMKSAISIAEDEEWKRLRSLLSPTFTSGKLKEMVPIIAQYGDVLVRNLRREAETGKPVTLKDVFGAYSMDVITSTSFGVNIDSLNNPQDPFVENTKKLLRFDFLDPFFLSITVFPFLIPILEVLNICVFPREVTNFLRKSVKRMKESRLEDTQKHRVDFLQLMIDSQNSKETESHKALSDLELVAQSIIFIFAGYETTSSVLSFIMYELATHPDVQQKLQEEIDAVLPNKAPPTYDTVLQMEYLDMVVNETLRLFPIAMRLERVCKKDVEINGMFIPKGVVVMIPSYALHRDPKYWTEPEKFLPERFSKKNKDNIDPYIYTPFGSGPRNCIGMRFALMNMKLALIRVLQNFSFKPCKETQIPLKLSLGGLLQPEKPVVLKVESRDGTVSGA

[2] = Microsomal stability in mouse liver microsomes assessed as parent compound remaining preincubated for 5 mins followed by NADPH addition measured after 60 mins by LC-MS/MS analysis; assay type: ADME, Microsome; settings: time 65 min, read-out: Stability
CYP1A2 = target: T1, CYP1A2 (Homo sapiens, UniProt P05177); assay: Inhibition of CYP1A2 in human liver microsomes using phenacetin as substrate assessed as residual activity at 10 uM preincubated for 5 mins followed by substrate addition and measured after 15 mins in presence of NADPH by LC-MS/MS analysis; assay type: ADME, Microsome; settings: probe phenacetin, time 20 min, read-out: Activity
T1 sequence (P05177 whole entry): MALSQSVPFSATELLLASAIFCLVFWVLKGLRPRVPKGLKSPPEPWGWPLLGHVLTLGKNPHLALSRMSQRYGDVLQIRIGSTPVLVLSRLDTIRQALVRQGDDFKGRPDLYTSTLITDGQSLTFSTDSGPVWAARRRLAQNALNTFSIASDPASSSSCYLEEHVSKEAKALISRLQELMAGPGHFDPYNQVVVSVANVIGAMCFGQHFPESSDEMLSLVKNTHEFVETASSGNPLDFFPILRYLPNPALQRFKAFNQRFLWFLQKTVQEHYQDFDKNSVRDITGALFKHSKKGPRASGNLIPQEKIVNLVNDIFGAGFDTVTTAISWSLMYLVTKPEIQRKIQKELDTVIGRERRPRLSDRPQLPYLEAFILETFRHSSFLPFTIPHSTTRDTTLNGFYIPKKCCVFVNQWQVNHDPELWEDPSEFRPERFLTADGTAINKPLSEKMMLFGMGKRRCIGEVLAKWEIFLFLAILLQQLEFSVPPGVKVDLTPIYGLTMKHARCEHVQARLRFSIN

[3] = Microsomal stability in rat liver microsomes assessed as parent compound remaining preincubated for 5 mins followed by NADPH addition measured after 60 mins by LC-MS/MS analysis; assay type: ADME, Microsome; settings: time 65 min, read-out: Stability
[4] = Microsomal stability in human liver microsomes assessed as parent compound remaining preincubated for 5 mins followed by NADPH addition measured after 60 mins by LC-MS/MS analysis; assay type: ADME, Microsome; settings: time 65 min, read-out: Stability
[5] = target: T2, Sphingosine 1-phosphate receptor 1 (Homo sapiens, UniProt P21453); assay: Agonist activity at S1P1 (unknown origin) expressed in human HEK293/Galpha15 cells assessed as Ca2+ activation measured for 2 hrs by FLIPR analysis; assay type: functional, cell-based
T2 sequence (P21453 whole entry): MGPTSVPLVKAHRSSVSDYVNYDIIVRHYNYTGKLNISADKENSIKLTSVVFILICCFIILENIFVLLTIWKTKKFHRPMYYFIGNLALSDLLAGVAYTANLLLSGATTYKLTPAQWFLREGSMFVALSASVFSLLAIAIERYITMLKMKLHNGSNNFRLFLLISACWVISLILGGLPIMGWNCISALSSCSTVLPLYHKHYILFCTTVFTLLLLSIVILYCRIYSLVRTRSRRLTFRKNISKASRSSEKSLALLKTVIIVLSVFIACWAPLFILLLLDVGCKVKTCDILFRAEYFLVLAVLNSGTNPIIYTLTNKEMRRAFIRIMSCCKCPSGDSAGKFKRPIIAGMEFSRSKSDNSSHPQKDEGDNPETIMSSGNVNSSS

[6] = target: T2, Sphingosine 1-phosphate receptor 1; assay: Agonist activity at S1P1 (unknown origin) expressed in PathHunter CHO-K1 EDG1 beta-arrestin cells assessed as beta-arrestin2 recruitment incubated for 90 mins by chemiluminescence based assay; assay type: functional, cell-based
[7] = target: T2, Sphingosine 1-phosphate receptor 1; assay: Agonist activity at S1P1 (unknown origin) expressed in human HEK293/Galpha15 cells assessed as Ca2+ activation at 1 uM measured for 2 hrs by FLIPR analysis relative to control; assay type: functional, cell-based; settings: filed as agonist
[8] = target: T2, Sphingosine 1-phosphate receptor 1; assay: Agonist activity at S1P1 (unknown origin) expressed in PathHunter CHO-K1 EDG1 beta-arrestin cells assessed as beta-arrestin2 recruitment at 1 uM incubated for 90 mins by chemiluminescence based assay relative to control; assay type: functional, cell-based; settings: filed as agonist
[9] = Observed volume of distribution at steady state in ICR mouse at 1 mg/kg, iv measured at 0.25 to 12 hrs by LC-MS/MS analysis; assay type: ADME, organism-based; settings: in vivo, time 0.25-12 hrs, read-out: Vdss
[10] = Observed MRT (infinitive) in ICR mouse at 1 mg/kg, iv measured at 0.25 to 12 hrs by LC-MS/MS analysis; assay type: ADME, organism-based; settings: in vivo, time 0.25-12 hrs
[11] = Microsomal stability in human liver microsomes assessed as parent compound remaining preincubated for 5 mins followed by NADPH addition measured after 30 mins by LC-MS/MS analysis; assay type: ADME, Microsome; settings: time 35 min, read-out: Stability
[12] = Observed MRT (infinitive) in ICR mouse at 10 mg/kg, po measured at 0.25 to 12 hrs by LC-MS/MS analysis; assay type: ADME, organism-based; settings: in vivo, time 0.25-12 hrs
Mus musculus = assay: In vivo agonist activity at S1P1 in mouse assessed as reduction in peripheral lymphocyte count at 10 mg/kg, po measured at 3 hrs; assay type: functional, organism-based
[13] = Tmax in ICR mouse at 10 mg/kg, po measured at 0.25 to 12 hrs by LC-MS/MS analysis; assay type: ADME, organism-based; settings: in vivo, time 0.25-12 hrs
[14] = Microsomal stability in mouse liver microsomes assessed as parent compound remaining preincubated for 5 mins followed by NADPH addition measured after 30 mins by LC-MS/MS analysis; assay type: ADME, Microsome; settings: time 35 min, read-out: Stability
[15] = Half life in ICR mouse at 10 mg/kg, po measured at 0.25 to 12 hrs by LC-MS/MS analysis; assay type: ADME, organism-based; settings: in vivo, time 0.25-12 hrs
[16] = Microsomal stability in rat liver microsomes assessed as parent compound remaining preincubated for 5 mins followed by NADPH addition measured after 30 mins by LC-MS/MS analysis; assay type: ADME, Microsome; settings: time 35 min, read-out: Stability
[17] = Half life in ICR mouse at 1 mg/kg, iv measured at 0.25 to 12 hrs by LC-MS/MS analysis; assay type: ADME, organism-based; settings: in vivo, time 0.25-12 hrs
[18] = Observed clearance in ICR mouse at 1 mg/kg, iv measured at 0.25 to 12 hrs by LC-MS/MS analysis; assay type: ADME, organism-based; settings: in vivo, time 0.25-12 hrs
[19] = AUClast in ICR mouse at 1 mg/kg, iv measured at 0.25 to 12 hrs by LC-MS/MS analysis; assay type: ADME, organism-based; set-up: time lower 0.25 hrs, dose 1 mg/kg, time upper 12 hrs, route iv; settings: in vivo
[20] = Oral bioavailability in ICR mouse at 10 mg/kg measured at 0.25 to 12 hrs by LC-MS/MS analysis; assay type: ADME, organism-based; settings: in vivo, time 0.25-12 hrs
[21] = Cmax in ICR mouse at 10 mg/kg, po measured at 0.25 to 12 hrs by LC-MS/MS analysis; assay type: ADME, organism-based; set-up: time upper 12 hrs, dose 10 mg/kg, time lower 0.25 hrs, route po; settings: in vivo
[22] = AUClast in ICR mouse at 10 mg/kg, po measured at 0.25 to 12 hrs by LC-MS/MS analysis; assay type: ADME, organism-based; set-up: time 0.25-12 hrs, dose 10 mg/kg, route po; settings: in vivo

CC(C)NCC(O)c1ccc(NS(C)(=O)=O)cc1 (stereo not given) [SOTALOL]
Activity [1]: Non-Toxic

CC(C)Oc1ccc(COc2ccc3c(c2)CCCN(S(=O)(=O)CC(=O)O)C3)cc1C#N
activity at 0.25 h, 10 µM (CYP2C9): 86.1% | activity at 0.25 h, 10 µM (CYP2D6): 89.4% | activity at 0.25 h, 10 µM (CYP3A4): 87.7% | remaining at 1 h [2]: 85.1% | activity at 0.25 h, 10 µM (CYP1A2): 86.9% | remaining at 1 h [3]: 73.6% | remaining at 1 h [4]: 90.9% | EC50 [5]: 46.3 nM | EC50 [6]: 25.3 nM | Activity [7]: 94% | Activity [8]: 94%

CC(C)Oc1ccc(COc2ccc3c(c2)CCN(S(=O)(=O)CCC(=O)O)C3)cc1C#N
Vd [9]: 1.1 L/kg | activity at 0.25 h, 10 µM (CYP2C9): 75.4% | MRT inf [10]: 1 h | activity at 0.25 h, 10 µM (CYP2D6): 91.9% | remaining at 0.5 h [11]: 90.2% | activity at 0.25 h, 10 µM (CYP3A4): 87.5% | activity at 0.25 h, 10 µM (CYP1A2): 80.4% | MRT inf [12]: 1.9 h | Activity (Mus musculus): Active | Tmax [13]: 0.5 h | EC50 [5]: 14 nM | EC50 [6]: 50 nM | remaining at 0.5 h [14]: 100% | half-life [15]: 1.3 h | Activity [7]: 100% | remaining at 0.5 h [16]: 93.8% | half-life [17]: 2.4 h | clearance [18]: 18.2 mL/min/kg | AUC(0-t) [19]: 925 ng·h/mL | bioavailability [20]: 46.4% | Cmax [21]: 2290 ng/mL | AUC(0-t) [22]: 4290 ng·h/mL | Activity [8]: 125%
